Results taken from patent publication US10385037B2, “4′-O-substituted isoindoline derivatives and compositions comprising and methods of using the same” (Celgene Corporation, priority 2007, dated 2019).

Row | melting point | Compound
1 | 263 to 265 °C | O=C1CCC(N2C(=O)c3cccc(OCc4cnc5ccccc5c4)c3C2=O)C(=O)N1 (stereo not drawn) [Example 15, 2-(2,6-Dioxo-piperidin-3-yl)-4-(quinolin-3-ylmethoxy)-isoindole-1,3-dione]
2 | 239 to 241 °C | O=C1CCC(N2C(=O)c3cccc(OCc4ccc(Cl)cc4)c3C2=O)C(=O)N1 (stereo not drawn) [Example 5, 4-(4-Chloro-benzyloxy)-2-(2,6-dioxo-piperidin-3-yl)-isoindole-1,3-dione]
3 | 264 to 266 °C | O=C1CCC(N2C(=O)c3cccc(OCc4cc5c(F)cccc5s4)c3C2=O)C(=O)N1 (stereo not drawn) [Example 21, 2-(2,6-Dioxo-piperidin-3-yl)-4-(4-fluoro-benzo[b]thiophen-2-ylmethoxy)-isoindole-1,3-dione]
4 | 234 to 236 °C | O=C1CCC(N2C(=O)c3cccc(OCc4cc5ccccc5o4)c3C2=O)C(=O)N1 (stereo not drawn) [Example 17, 4-(Benzofuran-2-ylmethoxy)-2-(2,6-dioxo-piperidin-3-yl)-isoindole-1,3-dione]
5 | 278 to 280 °C | O=C1CCC(N2C(=O)c3cccc(OCc4cc(Cl)cc(Cl)c4)c3C2=O)C(=O)N1 (stereo not drawn) [Example 7, 4-(3,5-Dichloro-benzyloxy)-2-(2,6-dioxo-piperidin-3-yl)-isoindole-1,3-dione]
6 | 195 to 197 °C | Cc1cccc(COc2cccc3c2C(=O)N(C2CCC(=O)NC2=O)C3=O)c1 (stereo not drawn) [Example 10, 2-(2,6-Dioxo-piperidin-3-yl)-4-(3-methyl-benzyloxy)-isoindole-1,3-dione]
7 | 229 to 231 °C | O=C1CCC(N2C(=O)c3cccc(OCc4ccc5c(c4)OCO5)c3C2=O)C(=O)N1 (stereo not drawn) [Example 13, 4-(Benzo[1,3]dioxol-5-ylmethoxy)-2-(2,6-dioxo-piperidin-3-yl)-isoindole-1,3-dione]
8 | 246 to 248 °C | O=C1CCC(N2C(=O)c3cccc(OCc4cccc(Br)c4)c3C2=O)C(=O)N1 (stereo not drawn) [Example 9, 4-(3-Bromo-benzyloxy)-2-(2,6-dioxo-piperidin-3-yl)-isoindole-1,3-dione]
9 | 245 to 247 °C | O=C1CCC(N2C(=O)c3cccc(OCc4ccc(Cl)c(Cl)c4)c3C2=O)C(=O)N1 (stereo not drawn) [Example 6, 4-(3,4-Dichloro-benzyloxy)-2-(2,6-dioxo-piperidin-3-yl)-isoindole-1,3-dione]
10 | 217 to 219 °C | O=C1CCC(N2C(=O)c3cccc(OCc4ccc(Cl)s4)c3C2=O)C(=O)N1 (stereo not drawn) [Example 22]
11 | 174 to 176 °C | CC(Oc1cccc2c1C(=O)N(C1CCC(=O)NC1=O)C2=O)c1ccc2ccccc2c1 (stereo not drawn) [Example 23, 2-(2,6-Dioxo-piperidin-3-yl)-4-(1-naphthalen-2-yl-ethoxy)-isoindole-1,3-dione]
12 | 241 to 243 °C | O=C1CCC(N2C(=O)c3cccc(OCc4cccc(F)c4)c3C2=O)C(=O)N1 (stereo not drawn) [Example 8, 4-(3-Fluoro-benzyloxy)-2-(2,6-dioxo-piperidin-3-yl)-isoindole-1,3-dione]
13 | 197 to 201 °C | COc1cccc(COc2cccc3c2C(=O)N(C2CCC(=O)NC2=O)C3=O)c1 (stereo not drawn) [Example 12, 2-(2,6-Dioxo-piperidin-3-yl)-4-(3-methoxy-benzyloxy)-isoindole-1,3-dione]
14 | 178 to 180 °C | COc1ccc(COc2cccc3c2C(=O)N(C2CCC(=O)NC2=O)C3=O)cc1 (stereo not drawn) [Example 24, 2-(2,6-Dioxo-piperidin-3-yl)-4-(4-methoxy-benzyloxy)-isoindole-1,3-dione]
15 | 240 to 242 °C | O=C1CCC(N2C(=O)c3cccc(OCc4sc5ccccc5c4Cl)c3C2=O)C(=O)N1 (stereo not drawn) [Example 20, 4-(3-Chloro-benzo[b]thiophen-2-ylmethoxy)-2-(2,6-dioxo-piperidin-3-yl)-isoindole-1,3-dione]
16 | 249 to 251 °C | O=C1CCC(N2C(=O)c3cccc(OCc4cccc(Cl)c4)c3C2=O)C(=O)N1 (stereo not drawn) [Example 4, 4-(3-Chloro-benzyloxy)-2-(2,6-dioxo-piperidin-3-yl)-isoindole-1,3-dione]
17 | 184 to 186 °C | O=C1CCC(N2C(=O)c3cccc(OCc4ccco4)c3C2=O)C(=O)N1 (stereo not drawn) [Example 19, 2-(2,6-Dioxo-piperidin-3-yl)-4-(furan-2-ylmethoxy)-isoindole-1,3-dione]
18 | 247 to 249 °C | O=C1CCC(N2C(=O)c3cccc(OCc4cc5ccccc5s4)c3C2=O)C(=O)N1 (stereo not drawn) [Example 18, 4-(Benzo[b]thiophen-2-ylmethoxy)-2-(2,6-dioxo-piperidin-3-yl)-isoindole-1,3-dione]
19 | 254 to 256 °C | O=C1CCC(N2C(=O)c3cccc(OCc4ccc5ccccc5n4)c3C2=O)C(=O)N1 (stereo not drawn) [Example 16, 2-(2,6-Dioxo-piperidin-3-yl)-(quinolin-2-ylmethoxy)-isoindole-1,3-dione]
20 | 293 to 295 °C | CS(=O)(=O)c1ccc(COc2cccc3c2C(=O)N(C2CCC(=O)NC2=O)C3=O)cc1 (stereo not drawn) [Example 11, 2-(2,6-Dioxo-piperidin-3-yl)-4-(4-methanesulfonyl-benzyloxy)-isoindole-1,3-dione]
21 | > 260 °C | O=C1CCC(N2C(=O)c3cccc(OCc4ccc5ccccc5c4)c3C2=O)C(=O)N1 (stereo not drawn) [Example 14, 2-(2,6-Dioxo-piperidin-3-yl)-(naphthalene-2-ylmethoxy)-isoindole-1,3-dione]
